pEC50: −log10 of the molar value. Like-named read-outs stand apart in the source and are kept apart here. Starred links: 1 amine or outer side, 2 acyl side, 3 side chain; linkers in the order of their positions; H or OH if unused. Positions of bridges follow the written chain, without caps; N, C: chain ends. Non-standard residues stand in square brackets, D forms with d. Groups on a side chain read outwards from the residue. *: point of attachment. C20 diacid = O=C(O)CCCCCCCCCCCCCCCCCCC(=O)*; C18 diacid = O=C(O)CCCCCCCCCCCCCCCCC(=O)*; C16 diacid = O=C(O)CCCCCCCCCCCCCCC(=O)*; γGlu = O=C(O)[C@H](CCC(=O)[*:2])N[*:1]; AEEA = NCCOCCOCC(=O)O; Aib = CC(C)(N)C(=O)O
Tests used:
[1] = molecular target: T1, human GLP-1 receptor (Homo sapiens, UniProt P43220); assay: Human GLP-1 receptor in vitro potency assay (CRE-luciferase reporter, BHK cells); format: cell-based
T1 construct: expressed in transfected cells; host or cells: BHK (Baby Hamster Kidney) cells, clone BHK 467-12A KZ-10, stably transfected, with CRE-luciferase reporter
T1 sequence (P43220 24-463): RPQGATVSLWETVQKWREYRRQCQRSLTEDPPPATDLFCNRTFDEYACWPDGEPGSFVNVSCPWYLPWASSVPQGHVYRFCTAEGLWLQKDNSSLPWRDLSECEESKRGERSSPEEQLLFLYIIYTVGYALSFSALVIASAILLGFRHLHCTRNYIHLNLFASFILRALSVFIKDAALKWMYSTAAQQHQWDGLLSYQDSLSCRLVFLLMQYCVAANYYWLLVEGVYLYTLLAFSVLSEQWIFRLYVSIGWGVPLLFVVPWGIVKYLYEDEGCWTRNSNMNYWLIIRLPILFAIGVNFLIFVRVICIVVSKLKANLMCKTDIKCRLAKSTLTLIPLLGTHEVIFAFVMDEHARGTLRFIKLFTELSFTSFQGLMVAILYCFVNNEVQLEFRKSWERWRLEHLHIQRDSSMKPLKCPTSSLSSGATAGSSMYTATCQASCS
Protocol: It is thus possible to measure GLP-1 receptor activity using a CRE-luciferase reporter gene introduced into Baby Hamster Kidney (BHK) cells co-expressing the GLP-1 receptor.
(§1) Cells were aliquoted and stored at -180° C. until use.
Plates were sealed and incubated at room temperature with gentle shaking for 30 minutes while protected from light. Luminescence was detected on a luminescence plate reader e.g. a Synergy 2 (BioTek).

[2] = molecular target: T2, human amylin receptor (hAmyR3) (Homo sapiens, UniProt O60896+P30988); assay: Human amylin receptor in vitro potency assay (CRE-luciferase reporter, BHK cells); format: cell-based; details: for EC50: Table 4a, BHK hAmyR3/CRE-Luc cells, 3 hours, read-out: Human AmyR3 potency [EC50 (pM)];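 for all read-outs here: BHK cells expressing human calcitonin receptor plus RAMP3 (amylin-3 receptor) with a CRE-luciferase reporter, agonist activity read as luminescence from cAMP-driven transcription, 7-point serial dilutions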
T2 construct: host or cells: BHK cells (Hollex-1 line: human calcitonin receptor (a) + CRE-Luc), further transfected with human RAMP3
T2 sequence (P30988 25-474): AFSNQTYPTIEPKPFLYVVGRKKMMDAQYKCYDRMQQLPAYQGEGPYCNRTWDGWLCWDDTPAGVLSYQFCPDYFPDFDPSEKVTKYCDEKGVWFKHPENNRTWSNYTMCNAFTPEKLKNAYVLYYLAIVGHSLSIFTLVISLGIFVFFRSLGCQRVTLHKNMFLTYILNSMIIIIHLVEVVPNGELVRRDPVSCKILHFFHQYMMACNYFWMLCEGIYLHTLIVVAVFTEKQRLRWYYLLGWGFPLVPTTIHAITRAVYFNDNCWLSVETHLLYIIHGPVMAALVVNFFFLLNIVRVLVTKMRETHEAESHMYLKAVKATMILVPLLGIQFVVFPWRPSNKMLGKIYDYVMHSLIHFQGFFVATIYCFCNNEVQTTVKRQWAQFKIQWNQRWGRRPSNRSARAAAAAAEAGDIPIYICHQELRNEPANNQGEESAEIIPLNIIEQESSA
T2 sequence (O60896 24-148): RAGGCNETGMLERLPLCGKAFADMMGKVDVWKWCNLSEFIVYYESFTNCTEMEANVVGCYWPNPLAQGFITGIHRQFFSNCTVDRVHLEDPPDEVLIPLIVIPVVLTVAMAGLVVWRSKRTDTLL
Description: Activation of hAmyR3 leads to increased cellular concentrations of cAMP. Consequently, transcription is activated by promotors containing multiple copies of the cAMP response element (CRE). It is thus possible to measure hAmyR3 activity using a CRE-luciferase reporter gene introduced into Baby Hamster Kidney (BHK) cells co-expressing the hAmyR3.
The cell line was further transfected with human receptor modifying protein 3 (RAMP3) using standard methods. This turns the human calcitonin receptor into a human amylin-3(a) receptor.
as §1
The plate was incubated over night at 37° C. in 5% CO2. On the day of the assay, cells were washed three times in assay buffer. Serial dilutions (7-fold dilutions, 7 concentrations pr. compound and one well containing only assay buffer) of comparator compounds and GLP-1 receptor-amylin receptor co-agonists were performed in assay buffer often starting from approximately 10-100 nM in 96-well plates and 30 µL of each concentration added to the 384-well assay plate with cells. […] The assay plate was sealed, incubated at room temperature with gentle shaking for 5 minutes followed by 30 minutes incubation without shaking while protected from light. Luminescence was detected on a luminescence plate reader e.g. a Synergy 2 (BioTek).

Compound	pEC50 [1]	pEC50 [2]	EC50 [2] [pM]	Ability to agonise the amylin receptor, in words ([2]; Tables 4a-4c)
CC[C@H](C)[C@H](NC(=O)[C@H](Cc1ccccc1)NC(=O)[C@H](CCC(=O)O)NC(=O)[C@H](CCCCNC(=O)COCCOCCNC(=O)COCCOCCNC(=O)CC[C@H](NC(=O)CCCCCCCCCCCCCCCCC(=O)O)C(=O)O)NC(=O)[C@H](C)NC(=O)[C@H](C)NC(=O)[C@H](CCC(N)=O)NC(=O)CNC(=O)[C@H](CCC(=O)O)NC(=O)[C@H](CC(C)C)NC(=O)[C@H](Cc1ccc(O)cc1)NC(=O)[C@H](CO)NC(=O)[C@H](CO)NC(=O)[C@@H](NC(=O)[C@H](CC(=O)O)NC(=O)[C@H](CO)NC(=O)[C@@H](NC(=O)[C@H](Cc1ccccc1)NC(=O)[C@@H](NC(=O)CNC(=O)[C@H](CCC(=O)O)NC(=O)C(C)(C)NC(=O)[C@@H](N)Cc1c[nH]cn1)[C@@H](C)O)[C@@H](C)O)C(C)C)C(=O)N[C@@H](C)C(=O)N[C@@H](Cc1c[nH]c2ccccc12)C(=O)N[C@@H](CC(C)C)C(=O)N[C@H](C(=O)N[C@@H](CCCNC(=N)N)C(=O)NCC(=O)N[C@@H](CCCNC(=N)N)C(=O)NCC(=O)N[C@@H](CCCCNC(=O)COCCOCCNC(=O)COCCOCCNC(=O)CC[C@H](NC(=O)CCCCCCCCCCCCCCCCC(=O)O)C(=O)O)C(=O)N[C@@H](CCC(N)=O)C(=O)N[C@@H](CCC(=O)O)C(=O)N1CCC[C@H]1C(=O)NCC(=O)N[C@@H](CCC(N)=O)C(=O)N[C@@H](CCC(=O)O)C(=O)N1CCC[C@H]1C(=O)N[C@@H](CCC(=O)O)C(=O)N[C@@H](C)C(=O)N[C@@H](CO)C(=O)N[C@@H](CCC(=O)O)C(=O)N[C@@H](CC(C)C)C(=O)N[C@@H](CO)C(=O)N[C@H](C(=O)N[C@@H](C)C(=O)N[C@@H](C)C(=O)N[C@@H](CC(C)C)C(=O)NCC(=O)N[C@@H](CCCNC(=N)N)C(=O)N[C@@H](CC(C)C)C(=O)N[C@@H](CO)C(=O)N[C@@H](C)C(=O)N[C@@H](CCC(=O)O)C(=O)N[C@@H](CC(C)C)C(=O)N[C@@H](Cc1c[nH]cn1)C(=O)N[C@@H](CCC(=O)O)C(=O)N[C@@H](CC(C)C)C(=O)N[C@@H](C)C(=O)N[C@H](C(=O)N[C@@H](CC(C)C)C(=O)N1CCC[C@H]1C(=O)N[C@@H](CCCNC(=N)N)C(=O)N[C@H](C(=O)N[C@@H](CCC(=O)O)C(=O)N[C@H](C(=O)NCC(=O)N[C@@H](CO)C(=O)NCC(=O)N[C@@H](CO)C(=O)N1CCC[C@H]1C(N)=O)[C@@H](C)O)[C@@H](C)O)[C@@H](C)O)[C@@H](C)O)C(C)C [Compound 0056]	10.38	9.92		
CC[C@H](C)[C@H](NC(=O)[C@H](Cc1ccccc1)NC(=O)[C@H](CCC(=O)O)NC(=O)[C@H](CCCCNC(=O)COCCOCCNC(=O)COCCOCCNC(=O)CC[C@H](NC(=O)CCCCCCCCCCCCCCCCC(=O)O)C(=O)O)NC(=O)[C@H](C)NC(=O)[C@H](C)NC(=O)[C@H](CCC(N)=O)NC(=O)CNC(=O)[C@H](CCC(=O)O)NC(=O)[C@H](CC(C)C)NC(=O)[C@H](Cc1ccc(O)cc1)NC(=O)[C@H](CO)NC(=O)[C@H](CO)NC(=O)[C@@H](NC(=O)[C@H](CC(=O)O)NC(=O)[C@H](CO)NC(=O)[C@@H](NC(=O)[C@H](Cc1ccccc1)NC(=O)[C@@H](NC(=O)CNC(=O)[C@H](CCC(=O)O)NC(=O)C(C)(C)NC(=O)[C@@H](N)Cc1c[nH]cn1)[C@@H](C)O)[C@@H](C)O)C(C)C)C(=O)N[C@@H](C)C(=O)N[C@@H](Cc1c[nH]c2ccccc12)C(=O)N[C@@H](CC(C)C)C(=O)N[C@H](C(=O)N[C@@H](CCCNC(=N)N)C(=O)NCC(=O)N[C@@H](CCCNC(=N)N)C(=O)NCC(=O)NCC(=O)N[C@@H](CCC(N)=O)C(=O)N[C@@H](CCC(=O)O)C(=O)N[C@@H](CCCCNC(=O)COCCOCCNC(=O)COCCOCCNC(=O)CC[C@H](NC(=O)CCCCCCCCCCCCCCCCC(=O)O)C(=O)O)C(=O)NCC(=O)N[C@@H](CCC(N)=O)C(=O)N[C@@H](CCC(=O)O)C(=O)N1CCC[C@H]1C(=O)N[C@@H](CCC(=O)O)C(=O)N[C@@H](C)C(=O)N[C@@H](CO)C(=O)N[C@@H](CCC(=O)O)C(=O)N[C@@H](CC(C)C)C(=O)N[C@@H](CO)C(=O)N[C@H](C(=O)N[C@@H](C)C(=O)N[C@@H](C)C(=O)N[C@@H](CC(C)C)C(=O)NCC(=O)N[C@@H](CCCNC(=N)N)C(=O)N[C@@H](CC(C)C)C(=O)N[C@@H](CO)C(=O)N[C@@H](C)C(=O)N[C@@H](CCC(=O)O)C(=O)N[C@@H](CC(C)C)C(=O)N[C@@H](Cc1c[nH]cn1)C(=O)N[C@@H](CCC(=O)O)C(=O)N[C@@H](CC(C)C)C(=O)N[C@@H](C)C(=O)N[C@H](C(=O)N[C@@H](CC(C)C)C(=O)N1CCC[C@H]1C(=O)N[C@@H](CCCNC(=N)N)C(=O)N[C@H](C(=O)N[C@@H](CCC(=O)O)C(=O)N[C@H](C(=O)NCC(=O)N[C@@H](CO)C(=O)NCC(=O)N[C@@H](CO)C(=O)N1CCC[C@H]1C(N)=O)[C@@H](C)O)[C@@H](C)O)[C@@H](C)O)[C@@H](C)O)C(C)C [Compound 0057]	10.23	9.78		
CC[C@H](C)[C@H](NC(=O)[C@H](Cc1ccccc1)NC(=O)[C@H](CCC(=O)O)NC(=O)[C@H](CCCCNC(=O)COCCOCCNC(=O)COCCOCCNC(=O)CC[C@H](NC(=O)CCCCCCCCCCCCCCCCC(=O)O)C(=O)O)NC(=O)[C@H](C)NC(=O)[C@H](C)NC(=O)[C@H](CCC(N)=O)NC(=O)CNC(=O)[C@H](CCC(=O)O)NC(=O)[C@H](CC(C)C)NC(=O)[C@H](Cc1ccc(O)cc1)NC(=O)[C@H](CO)NC(=O)[C@H](CO)NC(=O)[C@@H](NC(=O)[C@H](CC(=O)O)NC(=O)[C@H](CO)NC(=O)[C@@H](NC(=O)[C@H](Cc1ccccc1)NC(=O)[C@@H](NC(=O)CNC(=O)[C@H](CCC(=O)O)NC(=O)C(C)(C)NC(=O)[C@@H](N)Cc1c[nH]cn1)[C@@H](C)O)[C@@H](C)O)C(C)C)C(=O)N[C@@H](C)C(=O)N[C@@H](Cc1c[nH]c2ccccc12)C(=O)N[C@@H](CC(C)C)C(=O)N[C@H](C(=O)N[C@@H](CCCNC(=N)N)C(=O)NCC(=O)N[C@@H](CCCNC(=N)N)C(=O)NCC(=O)NCC(=O)N[C@@H](CCC(N)=O)C(=O)N[C@@H](CCC(=O)O)C(=O)N1CCC[C@H]1C(=O)NCC(=O)N[C@@H](CCC(N)=O)C(=O)N[C@@H](CCC(=O)O)C(=O)N1CCC[C@H]1C(=O)N[C@@H](CCCCNC(=O)COCCOCCNC(=O)COCCOCCNC(=O)CC[C@H](NC(=O)CCCCCCCCCCCCCCCCC(=O)O)C(=O)O)C(=O)N[C@@H](CCC(=O)O)C(=O)N[C@@H](C)C(=O)N[C@@H](CO)C(=O)N[C@@H](CCC(=O)O)C(=O)N[C@@H](CC(C)C)C(=O)N[C@@H](CO)C(=O)N[C@H](C(=O)N[C@@H](C)C(=O)N[C@@H](C)C(=O)N[C@@H](CC(C)C)C(=O)NCC(=O)N[C@@H](CCCNC(=N)N)C(=O)N[C@@H](CC(C)C)C(=O)N[C@@H](CO)C(=O)N[C@@H](C)C(=O)N[C@@H](CCC(=O)O)C(=O)N[C@@H](CC(C)C)C(=O)N[C@@H](Cc1c[nH]cn1)C(=O)N[C@@H](CCC(=O)O)C(=O)N[C@@H](CC(C)C)C(=O)N[C@@H](C)C(=O)N[C@H](C(=O)N[C@@H](CC(C)C)C(=O)N1CCC[C@H]1C(=O)N[C@@H](CCCNC(=N)N)C(=O)N[C@H](C(=O)N[C@@H](CCC(=O)O)C(=O)N[C@H](C(=O)NCC(=O)N[C@@H](CO)C(=O)NCC(=O)N[C@@H](CO)C(=O)N1CCC[C@H]1C(N)=O)[C@@H](C)O)[C@@H](C)O)[C@@H](C)O)[C@@H](C)O)C(C)C [Compound 0071]	10.16	9.80		
CC[C@H](C)[C@H](NC(=O)[C@H](Cc1ccccc1)NC(=O)[C@H](CCCCNC(=O)COCCOCCNC(=O)COCCOCCNC(=O)CC[C@H](NC(=O)CCCCCCCCCCCCCCCCC(=O)O)C(=O)O)NC(=O)[C@H](CCCNC(=N)N)NC(=O)[C@H](C)NC(=O)[C@H](C)NC(=O)[C@H](CCC(N)=O)NC(=O)[C@H](CCC(=O)O)NC(=O)[C@H](CCC(=O)O)NC(=O)[C@H](CC(C)C)NC(=O)[C@H](Cc1ccc(O)cc1)NC(=O)[C@H](CO)NC(=O)[C@H](CO)NC(=O)[C@@H](NC(=O)[C@H](CC(=O)O)NC(=O)[C@H](CO)NC(=O)[C@@H](NC(=O)[C@H](Cc1ccccc1)NC(=O)[C@@H](NC(=O)CNC(=O)[C@H](CCC(=O)O)NC(=O)C(C)(C)NC(=O)[C@@H](N)Cc1c[nH]cn1)[C@@H](C)O)[C@@H](C)O)C(C)C)C(=O)N[C@@H](CCC(=O)O)C(=O)N[C@@H](Cc1c[nH]c2ccccc12)C(=O)N[C@@H](CC(C)C)C(=O)N[C@H](C(=O)N[C@@H](CCCNC(=N)N)C(=O)NCC(=O)N[C@@H](CCCCNC(=O)COCCOCCNC(=O)COCCOCCNC(=O)CC[C@H](NC(=O)CCCCCCCCCCCCCCCCC(=O)O)C(=O)O)C(=O)NCC(=O)N[C@@H](CCC(=O)O)C(=O)NCC(=O)N[C@@H](CCC(N)=O)C(=O)N[C@@H](CCC(=O)O)C(=O)N1CCC[C@H]1C(=O)NCC(=O)NCC(=O)N[C@@H](C)C(=O)N[C@@H](CO)C(=O)N[C@@H](CCC(=O)O)C(=O)N[C@@H](CC(C)C)C(=O)N[C@@H](CO)C(=O)N[C@H](C(=O)N[C@@H](C)C(=O)N[C@@H](C)C(=O)N[C@@H](CC(C)C)C(=O)NCC(=O)N[C@@H](CCCNC(=N)N)C(=O)N[C@@H](CC(C)C)C(=O)N[C@@H](CO)C(=O)N[C@@H](C)C(=O)N[C@@H](CCC(=O)O)C(=O)N[C@@H](CC(C)C)C(=O)N[C@@H](Cc1c[nH]cn1)C(=O)N[C@@H](CCC(=O)O)C(=O)N[C@@H](CC(C)C)C(=O)N[C@@H](C)C(=O)N[C@H](C(=O)N[C@@H](CC(C)C)C(=O)N1CCC[C@H]1C(=O)N[C@@H](CCCNC(=N)N)C(=O)N[C@H](C(=O)N[C@@H](CCC(=O)O)C(=O)N[C@H](C(=O)NCC(=O)N[C@@H](CO)C(=O)NCC(=O)N[C@@H](CO)C(=O)N1CCC[C@H]1C(N)=O)[C@@H](C)O)[C@@H](C)O)[C@@H](C)O)[C@@H](C)O)C(C)C [Compound 0106]			28.4	
H-H[Aib]EGTFTSDVSSYLEEQAARK([AEEA-AEEA-γGlu-γGlu-γGlu-C20 diacid])FIEWLVRGRQEAASELSTAALGRLSAELHQLATLPRTETGSGSP-NH2 [Compound 0636]			8.5	
H-H[Aib]EGTFTSDVSSYLEGQAAK([AEEA-AEEA-γGlu-C18 diacid])EFIAWLVRGRGGQEPGQEPK([γGlu-γGlu-C20 diacid])CNTATCATQRLADFLRHSSPNFGAIPSSTNVGSRTY-NH2 (disulfide 41-46) [Comparator compound 0668, reference compound]				do not activate the amylin receptor
H[Aib]EGTFTSDVSSYLEEQAARK([AEEA-AEEA-γGlu-C16 diacid])FIAWLVRGRGGK([AEEA-AEEA-γGlu-C16 diacid])EASELSTAALGRLSAELHELATLPRTETGSGSP-NH2 [Compound 0074]			60.9	
